Like-named read-outs stand apart in the source and are kept apart here.
Legend:
[1] = Phase 1 plasma pharmacokinetics in healthy subjects; type: in vivo, human; details: for Cmax / half-life / AUC(0-t): plasma; for RAUC0-24 (accumulation ratio): AUC0-24 Day 4 / Day 1; for time of mean peak plasma concentration: after oral dosing
Method: Baseline demographics were collected during the screening period between study Day −28 and Day −3. Subjects remained at the clinic from 2 days before the first dose of study drug (Day-2) until study Day 8.
Serum samples for total cortisol and plasma samples for free cortisol, total methylprednisolone, free methylprednisolone, and ACTH1-24 were analyzed by Syneos Health (Quebec City, Quebec, Canada); plasma samples for N25D porcine ACTH1-39 were analyzed by QPS Netherlands BV (Groningen, Netherlands). Concentrations for all analytes were determined using liquid chromatography-tandem mass spectrometry methods that were validated according to the US FDA Bioanalytical Method Validation Guidance (May 2018). […]
The plasma total and free methylprednisolone were determined using a validated LC-MS/MS method developed by Syneos Health (Quebec City, Quebec, Canada). The LC-MS/MS methods for plasma total and free methylprednisolone were conducted using an Atmospheric Pressure Ionization (API) 5000 mass spectrometer (AB Sciex, Toronto, Canada) with positive electrospray ionization and multiple reaction monitoring (precursor/product ion m/z: 375/161 for methylprednisolone; 381/363 for methylprednisolone-d6, which was included as internal standard). Quantitative analysis was accomplished on an ACE Excel 2 C18-PFP (50×3.0 mm, 2 μm) column. The mobile phases were Milli-Q type water/methanol with ammonium formate and formic acid (in different proportions). The LC was run on isocratic mode followed by a column flush. The calibration range for plasma total methylprednisolone concentration was 0.500 to 500 ng/mL with LLOQ of 0.500 ng/mL. The inter- and intra-run-precision (relative SD) were ≤7%, and 8%, while the intra-run accuracy was 100% to 112%. The calibration range for plasma free cortisol concentration was 200 to […]. The inter- and intra-run-precision (relative SD) were ≤18.5% and 3%, respectively, while the intra-run accuracy was 94% to 101%.
All subjects whose PK profile contained at least 4 consecutive quantifiable concentrations were included in the PK population.
All subjects whose PK profile contained at least 4 consecutive quantifiable plasma concentrations of N25D porcine ACTH1-39, ACTH1-24, or total and free methylprednisolone were in the PK population.
PK parameters were estimated using actual blood collection times by noncompartmental methods using Phoenix® WinNonlin® 8.1. (Certara USA, Inc.). AUC0-24, AUC0-last, and AUC0-inf were calculated using the linear log trapezoidal rule. Kei was calculated using linear regression on the terminal slope of the ln-concentration versus time curve. At least 3 time points (excluding Cmax) and r^2≥0.90 were required to calculate and retain Kel and its associated parameters (t1/2 and AUC0-inf).

[2] = Cortisol-equivalent (steroidogenic) exposure of methylprednisolone; type: in vivo, human; details: for plasma free cortisol-equivalent AUEC24SG / plasma total cortisol-equivalent AUEC24SG: 32 mg oral daily, mean; for EmaxSG / AUEC24SG[BA]: mean (SD); for TmaxSG: median (min, max); for AUEC24SG[BA]: baseline-corrected
Method: Whole blood samples were drawn from each subject at predefined time points over 24 hours after oral methylprednisolone administration on study Day 1 and Day 4 for determination of plasma total and free methylprednisolone concentrations. All subjects who were in both the PK and PD populations were included in the cortisol-equivalent exposure population.
Because oral methylprednisolone is known to suppress endogenous cortisol production, PD parameters for serum total and plasma free cortisol after administration of methylprednisolone were not calculated. Instead, the cortisol-equivalent (steroidogenic) concentration (CSG) of methylprednisolone was estimated. […] Therefore, a conversion factor of 5 was applied to the methylprednisolone concentration (ConcMPD). The following equation was used to estimate the steroidogenic concentration of methylprednisolone (CSG):
CSG=(5×ConcMPo)+ConcCortisol
CSG was used to estimate the following PD parameters for the steroidogenic concentration of plasma total and free methylprednisolone: maximum observed effect for the steroidogenic concentration (CSG) concentration-time profile (EmaxSG), time of EmaxSG (TmaxSG), and area under the effect curve for the CSG concentration-time profile from time 0 to 24 hours (AUEC24SG). Baseline-corrected AUEC24SG (AUEC24SG[BA]) was calculated by subtracting the baseline (Day-1) cortisol concentrations from the time-matched Day 1 steroidogenic concentration.

[3] = Safety analyses (adverse events), phase 1 study; type: in vivo, human
Method: All subjects who received at least one dose of the study drug were in the safety population. Safety was assessed via adverse events (AEs), treatment-emergent AEs (TEAEs; events that occurred after the first dose of study drug and through study completion), serious TEAEs (TESAEs), physical examinations, vital signs, 12-lead electrocardiograms (ECGs), and clinical laboratory test findings collected throughout the study.

[4] = system: corticosterone levels in rats; experiment: Corticosterone levels in rats after RCI or ACTH; type: in vivo, rat
Method: Studies were conducted to discover the differences between repository corticotropin injection (RCI) (i.e. Acthar® gel) and synthetic adrenal corticotropin compositions (referred to as ACTH herein) on corticosterone levels in rats.
RCI (10, 40, or 400 IU/kg) or ACTH (0.6, 1.2, or 2.4 mg/kg) was administered to Sprague Dawely rats, plasma samples collected and analyzed for corticosterone.
RCI and ACTH peak corticosterone and area under the curve (AUC) were evaluated.

[5] = human, oral, 32 mg, plasma free methylprednisolone, Day 1, mean (SD)
[6] = human, oral, 32 mg, plasma free methylprednisolone, Day 4, mean (SD)
[7] = free cortisol (steroidogenic concentration), Day 1
[8] = free cortisol (steroidogenic concentration), Day 4
[9] = total cortisol (steroidogenic concentration), Day 1
[10] = total cortisol (steroidogenic concentration), Day 4

With C[C@H]1C[C@@H]2[C@H]([C@@H](O)C[C@@]3(C)[C@H]2CC[C@]3(O)C(=O)CO)[C@@]2(C)C=CC(=O)C=C12 [Methylprednisolone, methylprednisolone] the “mean exposure of plasma free methylprednisolone as share of plasma total methylprednisolone” value ([1]; both days (Day 1 and Day 4)) was “about 8%”, the AUC(0-inf) [1, 5] was 106 ng·h/mL and the Tmax ([1]; human, oral, 32 mg, plasma total methylprednisolone, Day 1, median (min, max)) was 2 h. It also gave a Cmax [1, 5] of 24.6 ng/mL, a half-life [1, 5] of 1.9 h and an AUC(0-t) ([1]; human, oral, 32 mg, plasma free methylprednisolone, Day 1, mean (SD), read-out: AUC0-last) of 104 ng·h/mL. It also gave an AUC(0-t) ([1]; human, oral, 32 mg, plasma free methylprednisolone, Day 1, n = 1, read-out: AUC0-24) of 176 ng·h/mL, a Cmax [1, 6] of 21.9 ng/mL and a half-life [1, 6] of 2 h. For the same compound, the AUC(0-t) ([1]; human, oral, 32 mg, plasma free methylprednisolone, Day 4, mean (SD), read-out: AUC0-last) was 89.5 ng·h/mL, the AUC(0-t) ([1]; human, oral, 32 mg, plasma free methylprednisolone, Day 4, n = 1, read-out: AUC0-24) was 145 ng·h/mL and the half-life ([1]; human, oral, 32 mg, plasma total methylprednisolone, Day 1, mean (SD)) was 2.2 h. For the same compound, the half-life ([1]; human, oral, 32 mg, plasma total methylprednisolone, Day 4, mean (SD)) was 2.4 h, the AUC(0-t) ([1]; human, oral, 32 mg, plasma total methylprednisolone, Day 4, mean (SD), read-out: AUC0-24) was 1110 ng·h/mL and the AUC(0-t) ([1]; human, oral, 32 mg, plasma total methylprednisolone, Day 4, mean (SD), read-out: AUC0-last) was 919 ng·h/mL. The Cmax ([1]; human, po, 32 mg, plasma total methylprednisolone, 32 mg oral daily, Day 1, mean (SD)) was 198 ng/mL, the Cmax ([1]; human, po, 32 mg, plasma total methylprednisolone, 32 mg oral daily, Day 4, mean (SD)) was 188 ng/mL and the AUC(0-t) ([1]; human, po, 32 mg, plasma total methylprednisolone, Day 1, mean (SD), read-out: AUC0-24) was 1330 ng·h/mL. The AUC(0-t) ([1]; human, po, 32 mg, plasma total methylprednisolone, Day 1, mean (SD), read-out: AUC0-last) was 1020 ng·h/mL, the AUC(0-inf) ([1]; human, po, 32 mg, plasma total methylprednisolone, Day 1, mean (SD)) was 1030 ng·h/mL and the “RAUC0-24 (accumulation ratio)” value ([1]; plasma free methylprednisolone, n = 1) was 0.8 (NA). For the same compound, the “RAUC0-24 (accumulation ratio)” value ([1]; plasma free methylprednisolone, n = 1, listed as methylprednisolone) was 0.8, the “time of mean peak plasma concentration” value ([1]; plasma free methylprednisolone) was 2 h and the “RAUC0-24 (accumulation ratio)” value ([1]; plasma total methylprednisolone, mean (SD)) was 0.9 (0.1). For the same compound, the “RAUC0-24 (accumulation ratio)” value ([1]; plasma total methylprednisolone, mean (SD), listed as methylprednisolone) was 0.9, the “time of mean peak plasma concentration” value ([1]; plasma total methylprednisolone) was “around 2 hours” and the “plasma free cortisol-equivalent AUEC24SG” value ([2]; Day 1) was 572.0 ng·h/mL. For the same compound, the “plasma total cortisol-equivalent AUEC24SG” value ([2]; Day 1) was 6480.0 ng·h/mL, the “plasma free cortisol-equivalent AUEC24SG” value ([2]; Day 4) was 492.0 ng·h/mL and the “plasma total cortisol-equivalent AUEC24SG” value ([2]; Day 4) was 5440.0 ng·h/mL. The EmaxSG [2, 7] was 124.0 (37.2) ng/mL, the TmaxSG [2, 7] was 2.0 (1.0, 4.0) h and the EmaxSG [2, 8] was 109.0 (26.7) ng/mL. For the same compound, the TmaxSG [2, 8] was 2.0 (1.0, 4.0) h, the “AUEC24SG[BA]” value ([2]; free cortisol, Day 1) was 553.0 (187.0) h*ng/mL and the “AUEC24SG[BA]” value ([2]; free cortisol, Day 4) was 475.0 (140.0) h*ng/mL. For the same compound, the EmaxSG [2, 9] was 1040.0 (251.0) ng/mL, the TmaxSG [2, 9] was 2.0 (2.0, 4.0) h and the EmaxSG [2, 10] was 959.0 (188.0) ng/mL. For the same compound, the TmaxSG [2, 10] was 2.0 (1.0, 4.0) h, the “AUEC24SG[BA]” value ([2]; total cortisol, Day 1) was 4860.0 (1680.0) h*ng/mL and the “AUEC24SG[BA]” value ([2]; total cortisol, Day 4) was 4010.0 (1260.0) h*ng/mL. For the same compound, the “subjects experiencing TESAEs (in words)” value ([3]; TESAE of pulmonary embolism in the synthetic ACTH1-24 depot group) was “no subjects”, the AEs ([3]; n = 16 per group) was 17 No and the “Any TESAE” value ([3]; n = 16 per group) was 0 No. (%). The “Subjects with any TEAE” value ([3]; n = 16 per group) was 10 (62.5) No. (%), the “TEAE: Contusion” value ([3]; n = 16 per group) was 1 (6.3) No. (%) and the “TEAE: Dysuria” value ([3]; n = 16 per group) was 0 No. (%). The “TEAE: Headache” value ([3]; n = 16 per group) was 2 (12.6) No. (%), the “TEAE: Heart palpitations” value ([3]; n = 16 per group) was 2 (12.5) No. (%) and the “TEAE: Injection site reaction” value ([3]; n = 16 per group) was 0 No. (%). For the same compound, the “TEAE: Insomnia” value ([3]; n = 16 per group) was 0 No. (%), the “TEAE: Somnolence” value ([3]; n = 16 per group) was 0 No. (%) and the “TESAE: Pulmonary embolism” value ([3]; n = 16 per group) was 0 No. (%).

With ACTH the “reduction of corticosterone AUC between ACTH doses” value ([4]; ACTH 0.6, 1.2, 2.4 mg/kg) was “no significant reduction”, the “dose dependence of corticosterone peak” value ([4]; Sprague Dawely rats, plasma) was “not dose dependent” and the “time of peak corticosterone” value ([4]; Sprague Dawely rats, plasma, RCI 10, 40, 400 IU/kg, ACTH 0.6, 1.2, 2.4 mg/kg) was 8 to 24 h.
